{"source": "patent US6737055B2", "about": "“Isolated cathepsin L type cysteine proteases and reducing intercorneocyte cohesion/promoting desquamation therewith” (Societe l'Oreal S.A., priority 1997, dated 2004)", "key": {"[1]": {"test_system": "cysteine-dependent protease of the G4 peak", "experiment": "Protease activity of G4 peak fractions (Enzcheck kit, BODIPYfl-caséine fluorometry) with or without known protease inhibitors, 5 mM cysteine", "format": "biochemical, human", "procedure": "The protease activities contained in the fractions obtained by transporting over the Superdex G75 HR10/30® exclusion column were assayed by fluorometry using the Enzcheck® kit (Molecular Probes).\nThis kit is a rapid and simple method of measuring the protease activities, with no precipitation or separation phase and is therefore suitable for rapid screening of the protease activities of the different fractions. This protocol employs, as substrate therefor, BODIPYfl-caséine® which becomes fluorescent after enzymatic digestion. The fluorescence thus liberated is directly proportional to the protease activity contained in the sample. The fluorescence was measured on the LS50B spectrofluorometer, Perkin Elmer, with an excitation wavelength of 485 nm (slit of 2.5 nm), an emission wavelength of 535 nm (slit of 8 nm) and an integration time of 1 second per well.\nThe assays were carried out in the presence or absence of cysteine at a final concentration of 5 mM so as to detect possible cysteine protease activities.\nIn order to better characterize the cysteine-dependent protease isolated above, tests of inhibition by known protease inhibitors were carried out. The measurements were carried out in an identical manner to the preceding measurements in the presence of cysteine at a final concentration of 5 mM and in the presence or absence (control) of the inhibitor considered."}, "cathepsins L": {"test_system": "cathepsins L", "settings": "in the presence of urea; cited from earlier work"}, "cathepsins D": {"test_system": "cathepsins D", "settings": "in the presence of urea; cited from earlier work"}, "L cathepsins": {"biological_target": "L cathepsins (Homo sapiens, UniProt P07711)", "sequence (P07711 114-333)": "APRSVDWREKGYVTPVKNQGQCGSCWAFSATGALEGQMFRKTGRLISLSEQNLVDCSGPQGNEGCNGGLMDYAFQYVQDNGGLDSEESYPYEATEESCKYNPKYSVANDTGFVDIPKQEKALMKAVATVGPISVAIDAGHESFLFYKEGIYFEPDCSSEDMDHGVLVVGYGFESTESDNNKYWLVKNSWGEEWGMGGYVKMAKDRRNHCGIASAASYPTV", "settings": "cited from earlier work"}}, "note": "Where a SMILES comes first, the peptide text is derived from it. [ ]: non-standard residue; d: D form. The star is where a group is joined. Sta = CC(C)C[C@H](N)[C@@H](O)CC(=O)O; Isovaleryl = CC(C)CC(=O)*", "data": [{"compound": "CC(C)C[C@H](NC(=O)[C@H]1O[C@@H]1C(=O)O)C(=O)NCCCCN=C(N)N", "note": "[E 64]", "values": [{"measurement": "inhibition of the activity of the cysteine-dependent protease of the G4 peak", "setting": "[1]; E 64 at 1.4 μM, 5 mM cysteine, acetate buffer pH 5.0", "result": "about 71%"}]}, {"compound": "CCCNC(=O)[C@H]1O[C@@H]1C(=O)N[C@H](C(=O)N1CCC[C@H]1C(=O)O)[C@@H](C)CC", "note": "[Inhibitor CA 074, CA 074]", "values": [{"measurement": "effect on the activity profile of the cysteine-dependent protease of peak G4", "setting": "[1]; 1 μM, 5 mM cysteine", "result": "practically, did not affect the activity profile"}]}, {"compound": "CC(=O)N[C@@H](CC(C)C)C(=O)N[C@@H](CC(C)C)C(=O)N[C@H](C=O)CCCNC(=N)N", "note": "[Leupeptin]", "values": [{"measurement": "reduction of the protease activity of G4", "setting": "[1]; leupeptin at 1 μM, in the presence of cysteine", "result": "about 41%"}]}, {"compound": "CC(C)CC(=O)N[C@H](C(=O)N[C@H](C(=O)N[C@@H](CC(C)C)[C@@H](O)CC(=O)N[C@@H](C)C(=O)N[C@@H](CC(C)C)[C@@H](O)CC(=O)O)C(C)C)C(C)C", "note": "[Pepstatin] (Isovaleryl-VV[Sta]A[Sta]-OH)", "values": [{"measurement": "action on G4 protease activity", "setting": "[1]; pepstatin at 1 μM, 5 mM cysteine", "result": "without action"}]}, {"compound": "CC(C)C[C@H](NC(=O)[C@@H](NC(=O)N[C@@H](Cc1ccccc1)C(=O)O)[C@@H]1CCN=C(N)N1)C(=O)N[C@H](C=O)Cc1ccccc1", "note": "[chymostatin, Chymostatin]", "values": [{"measurement": "inhibition of the cysteine-dependent protease of peak G4", "setting": "[1]; chymostatin at 2.5 μM, 5 mM cysteine", "result": "more than 50%"}]}, {"compound": "NC(N)=O", "note": "[urea, Urea]", "values": [{"measurement": "factor by which cathepsin L activity is multiplied", "setting": "cathepsins L", "result": 2.5}, {"measurement": "factor by which cathepsin D activity is multiplied", "setting": "cathepsins D", "result": 6}]}, {"compound": "Z(phe-arg 2R110)", "values": [{"measurement": "sensitivity to the action of the L cathepsins relative to the B cathepsins", "setting": "L cathepsins", "result": 850, "unit": "times"}]}]}
